The target of the assay is T1, full-length ATR (Homo sapiens, UniProt Q13535).
T1 construct: Assays were carried out at 25° C. in the presence of 5 nM full-length ATR
The assay can be described thus: ATR Inhibition Assay (radioactive-phosphate incorporation). As to conditions: for ATR Ki: Ki(app), 5 nM full-length ATR, 10 μM [γ-33P]ATP, 800 μM target peptide, 25° C. Format: biochemical. The protocol:
Compounds were screened for their ability to inhibit ATR kinase using a radioactive-phosphate incorporation assay. Assays were carried out in a mixture of 50 mM Tris/HCl (pH 7.5), 10 mM MgCl2 and 1 mM DTT.
Assays were carried out at 25° C. in the presence of 5 nM full-length ATR. An assay stock buffer solution was prepared containing all of the reagents listed above, with the exception of ATP and the test compound of interest. […] The plate was pre-incubated for 10 minutes at 25° C. and the reaction initiated by addition of 15 μL [γ-33P]ATP (final concentration 10 μM).
The reaction was stopped after […] by the addition of 30 μL 0.1M phosphoric acid containing 2 mM ATP. A multiscreen phosphocellulose filter 96-well plate (Millipore, Cat no. MAPHN0B50) was pretreated with 100 μL 0.2M phosphoric acid prior to the addition of 45 μL of the stopped assay mixture. The plate was washed with 5×200 μL 0.2M phosphoric acid.
After removing mean background values for all of the data points, Ki(app) data were calculated from non-linear regression analysis of the initial rate data using the Prism software package (GraphPad Prism version 3.0cx for Macintosh, GraphPad Software, San Diego Calif., USA).

T1 sequence (Q13535 whole entry): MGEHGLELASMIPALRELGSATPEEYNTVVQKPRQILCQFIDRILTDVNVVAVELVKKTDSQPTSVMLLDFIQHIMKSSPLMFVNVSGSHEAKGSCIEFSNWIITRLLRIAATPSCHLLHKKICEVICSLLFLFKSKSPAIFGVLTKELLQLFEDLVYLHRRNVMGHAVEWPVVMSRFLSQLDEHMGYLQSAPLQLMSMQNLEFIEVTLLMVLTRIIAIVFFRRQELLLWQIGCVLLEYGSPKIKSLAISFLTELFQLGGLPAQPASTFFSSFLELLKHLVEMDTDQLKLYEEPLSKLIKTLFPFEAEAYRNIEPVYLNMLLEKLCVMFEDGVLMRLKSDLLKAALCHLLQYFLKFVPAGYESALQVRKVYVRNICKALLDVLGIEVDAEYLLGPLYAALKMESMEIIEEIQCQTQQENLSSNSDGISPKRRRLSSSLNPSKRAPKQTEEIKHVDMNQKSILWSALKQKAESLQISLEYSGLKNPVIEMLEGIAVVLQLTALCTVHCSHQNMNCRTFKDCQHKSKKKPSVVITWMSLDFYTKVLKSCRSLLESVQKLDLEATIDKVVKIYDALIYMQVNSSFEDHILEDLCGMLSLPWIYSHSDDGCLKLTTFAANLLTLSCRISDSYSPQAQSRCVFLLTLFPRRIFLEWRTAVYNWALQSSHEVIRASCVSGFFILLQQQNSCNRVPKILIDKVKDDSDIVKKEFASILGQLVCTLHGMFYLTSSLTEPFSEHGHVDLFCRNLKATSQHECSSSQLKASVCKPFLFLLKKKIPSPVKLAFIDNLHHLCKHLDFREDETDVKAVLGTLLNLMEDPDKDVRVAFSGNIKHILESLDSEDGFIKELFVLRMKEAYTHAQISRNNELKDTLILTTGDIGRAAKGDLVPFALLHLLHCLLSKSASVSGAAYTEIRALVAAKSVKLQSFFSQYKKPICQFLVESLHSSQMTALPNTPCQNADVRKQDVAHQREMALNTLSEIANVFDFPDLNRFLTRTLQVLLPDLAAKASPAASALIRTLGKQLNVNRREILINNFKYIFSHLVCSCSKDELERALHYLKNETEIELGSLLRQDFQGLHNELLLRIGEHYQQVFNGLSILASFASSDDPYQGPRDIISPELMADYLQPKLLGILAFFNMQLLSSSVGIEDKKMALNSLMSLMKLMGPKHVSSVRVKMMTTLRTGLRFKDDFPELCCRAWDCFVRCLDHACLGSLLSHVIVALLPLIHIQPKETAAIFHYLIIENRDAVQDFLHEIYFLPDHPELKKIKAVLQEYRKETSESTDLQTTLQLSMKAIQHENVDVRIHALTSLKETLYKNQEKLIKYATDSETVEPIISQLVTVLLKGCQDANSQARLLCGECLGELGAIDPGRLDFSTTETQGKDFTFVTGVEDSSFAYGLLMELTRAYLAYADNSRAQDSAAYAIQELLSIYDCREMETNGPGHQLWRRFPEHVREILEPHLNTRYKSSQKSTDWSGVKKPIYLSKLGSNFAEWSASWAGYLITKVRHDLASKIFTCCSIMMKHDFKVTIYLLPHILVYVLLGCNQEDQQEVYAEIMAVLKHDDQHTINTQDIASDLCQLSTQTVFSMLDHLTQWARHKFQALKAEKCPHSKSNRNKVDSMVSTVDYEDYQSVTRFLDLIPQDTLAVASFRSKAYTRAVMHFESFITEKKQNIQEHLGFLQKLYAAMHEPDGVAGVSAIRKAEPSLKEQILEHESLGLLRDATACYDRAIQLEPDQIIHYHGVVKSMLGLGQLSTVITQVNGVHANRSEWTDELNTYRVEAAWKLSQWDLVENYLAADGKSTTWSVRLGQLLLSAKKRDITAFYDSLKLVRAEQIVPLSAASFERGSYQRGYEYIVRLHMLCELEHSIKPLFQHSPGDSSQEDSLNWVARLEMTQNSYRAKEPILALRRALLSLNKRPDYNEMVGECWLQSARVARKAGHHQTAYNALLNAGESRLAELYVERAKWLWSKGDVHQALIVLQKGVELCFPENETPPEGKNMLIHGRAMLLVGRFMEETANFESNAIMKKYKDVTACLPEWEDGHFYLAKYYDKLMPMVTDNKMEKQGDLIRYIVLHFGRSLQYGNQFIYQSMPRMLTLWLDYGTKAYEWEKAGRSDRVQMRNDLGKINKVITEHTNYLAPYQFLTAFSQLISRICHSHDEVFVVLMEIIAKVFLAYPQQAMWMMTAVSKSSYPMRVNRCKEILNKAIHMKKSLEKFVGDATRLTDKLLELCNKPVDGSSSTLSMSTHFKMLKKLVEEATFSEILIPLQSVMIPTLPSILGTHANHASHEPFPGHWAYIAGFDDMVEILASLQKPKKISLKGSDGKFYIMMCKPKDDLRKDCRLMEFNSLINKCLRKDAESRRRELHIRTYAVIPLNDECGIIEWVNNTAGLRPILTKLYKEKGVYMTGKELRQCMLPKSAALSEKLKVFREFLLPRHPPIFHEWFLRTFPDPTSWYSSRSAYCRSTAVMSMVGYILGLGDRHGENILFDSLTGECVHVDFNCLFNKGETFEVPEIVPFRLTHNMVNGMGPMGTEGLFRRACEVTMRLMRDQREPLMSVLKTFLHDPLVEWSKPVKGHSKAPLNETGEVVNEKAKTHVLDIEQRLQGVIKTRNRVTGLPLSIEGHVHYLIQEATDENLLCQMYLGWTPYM

Regarding `Cc1ccsc1-c1cc(-c2nc(-c3ccnc(C4(C#N)CCNCC4)c3)cnc2N)on1` [Compound I-24, 4-[4-[5-amino-6-[3-(3-methyl-2-thienyl)isoxazol-5-yl]pyrazin-2-yl]-2-pyridyl]piperidine-4-carbonitrile], the “ATR Ki” value is “+++ (Compounds with a Ki value >5 nM but ≦1 nM are marked with “+++.”)”.
As to `Cc1ccccc1-c1cc(-c2nc(-c3ccnc(C4(C#N)CCNCC4)c3)cnc2N)on1` [Compound I-25, 4-[4-[5-amino-6-[3-(o-tolyl)isoxazol-5-yl]pyrazin-2-yl]-2-pyridyl]piperidine-4-carbonitrile], the inhibition constant Ki lay within 5 to 20 nM.
For `N#CC1(c2cc(-c3cnc(N)c(-c4cc(-c5ccccc5O)no4)n3)ccn2)CCNCC1` [Compound I-26, 4-[4-[5-amino-6-[3-(2-hydroxyphenyl)isoxazol-5-yl]pyrazin-2-yl]-2-pyridyl]piperidine-4-carbonitrile], the “ATR Ki” value is “+++ (Compounds with a Ki value >5 nM but ≦1 nM are marked with “+++.”)”.
On the same count and under the same terms, in the case of `COc1ccccc1-c1cc(-c2nc(-c3ccnc(C4(C#N)CCNCC4)c3)cnc2N)on1` [Compound I-27, 4-[4-[5-amino-6-[3-(2-methoxyphenyl)isoxazol-5-yl]pyrazin-2-yl]-2-pyridyl]piperidine-4-carbonitrile] it was “+++ (Compounds with a Ki value >5 nM but ≦1 nM are marked with “+++.”)”; in that of `N#CC1(c2cc(-c3cnc(N)c(-c4cc(-c5ccccc5F)no4)n3)ccn2)CCNCC1` [Compound I-28, 4-(4-(5-amino-6-(3-(2-fluorophenyl)isoxazol-5-yl)pyrazin-2-yl)pyridin-2-yl)piperidine-4-carbonitrile], “+++ (Compounds with a Ki value >5 nM but ≦1 nM are marked with “+++.”)”.
In the case of `COc1cccc(C)c1-c1cc(-c2nc(-c3ccnc(C4(C#N)CCNCC4)c3)cnc2N)on1` [Compound I-29, 4-[4-[5-amino-6-[3-(2-methoxy-6-methyl-phenyl)isoxazol-5-yl]pyrazin-2-yl]-2-pyridyl]piperidine-4-carbonitrile], the Ki lay within 20 to 100 nM.
Regarding `N#CC1(c2cc(-c3cnc(N)c(-c4cc(-c5cccs5)no4)n3)ccn2)CCNCC1` [Compound I-30, 4-[4-[5-amino-6-[3-(2-thienyl)isoxazol-5-yl]pyrazin-2-yl]-2-pyridyl]piperidine-4-carbonitrile], the Ki is < 1 nM.
As to `N#CC1(c2cc(-c3cnc(N)c(-c4cc(-c5ccc(CO)cc5)no4)n3)ccn2)CCNCC1` [Compound I-31, 4-[4-[5-amino-6-[3-[4-(hydroxymethyl)phenyl]isoxazol-5-yl]pyrazin-2-yl]-2-pyridyl]piperidine-4-carbonitrile], the “ATR Ki” value was “+++ (Compounds with a Ki value >5 nM but ≦1 nM are marked with “+++.”)”.
The same measure, in the same setting: then `N#CC1(c2cc(-c3cnc(N)c(-c4cc(-c5ccc(O)cc5)no4)n3)ccn2)CCNCC1` [Compound I-32, 4-[4-[5-amino-6-[3-(4-hydroxyphenyl)isoxazol-5-yl]pyrazin-2-yl]-2-pyridyl]piperidine-4-carbonitrile], with “+++ (Compounds with a Ki value >5 nM but ≦1 nM are marked with “+++.”)”; and `N#CC1(c2cc(-c3cnc(N)c(-c4cc(-c5ccc6[nH]ccc6c5)no4)n3)ccn2)CCNCC1` [Compound I-33, 4-[4-[5-amino-6-[3-(1H-indol-5-yl)isoxazol-5-yl]pyrazin-2-yl]-2-pyridyl]piperidine-4-carbonitrile], with “+++ (Compounds with a Ki value >5 nM but ≦1 nM are marked with “+++.”)”.
For `N#CC1(c2cc(-c3cnc(N)c(-c4cc(-c5ccc(CN[C@H]6CCOC6)cc5)no4)n3)ccn2)CC1` [Compound I-34, 1-[4-[5-amino-6-[3-[4-[[[(3S)-tetrahydrofuran-3-yl]amino]methyl]phenyl]isoxazol-5-yl]pyrazin-2-yl]-2-pyridyl]cyclopropanecarbonitrile], the inhibition constant Ki is < 1 nM.
Same read-out and setting: then `N#CC1(c2cc(-c3cnc(N)c(-c4cc(-c5ccc(CN[C@H]6CCOC6)cc5)no4)n3)ccn2)CCC1` [Compound I-35, 1-[4-[5-amino-6-[3-[4-[[[(3S)-tetrahydrofuran-3-yl]amino]methyl]phenyl]isoxazol-5-yl]pyrazin-2-yl]-2-pyridyl]cyclobutanecarbonitrile], with < 1 nM; and `N#CC1(c2cc(-c3cnc(N)c(-c4cc(-c5ccc(CN[C@H]6CCOC6)cc5)no4)n3)ccn2)CCCC1` [Compound I-36, 1-[4-[5-amino-6-[3-[4-[[[(3S)-tetrahydrofuran-3-yl]amino]methyl]phenyl]isoxazol-5-yl]pyrazin-2-yl]-2-pyridyl]cyclopentanecarbonitrile], with < 1 nM.
Same read-out and setting: in the case of `CN1CCCC(C#N)(c2cc(-c3cnc(N)c(-c4cc(-c5ccccc5)no4)n3)ccn2)C1` (stereo not shown) [Compound I-37, 3-[4-[5-amino-6-(3-phenylisoxazol-5-yl)pyrazin-2-yl]-2-pyridyl]-1-methyl-piperidine-3-carbonitrile] it was < 1 nM; in that of `COCCNC(=O)C(C)(C)c1cc(-c2cnc(N)c(-c3cc(-c4ccccc4)no3)n2)ccn1` [Compound I-38, 2-[4-[5-amino-6-(3-phenylisoxazol-5-yl)pyrazin-2-yl]-2-pyridyl]-N-(2-methoxyethyl)-2-methyl-propanamide], 5 to 20 nM.
As to `CN(C)C(=O)C(C)(C)c1cc(-c2cnc(N)c(-c3cc(-c4ccccc4)no3)n2)ccn1` [Compound I-39, 2-[4-[5-amino-6-(3-phenylisoxazol-5-yl)pyrazin-2-yl]-2-pyridyl]-N,N,2-trimethyl-propanamide], the “ATR Ki” value is “+++ (Compounds with a Ki value >5 nM but ≦1 nM are marked with “+++.”)”.
Consider `CC(C)(C(=O)NCCCN)c1cc(-c2cnc(N)c(-c3cc(-c4ccccc4)no3)n2)ccn1` [Compound I-40, 2-[4-[5-amino-6-(3-phenylisoxazol-5-yl)pyrazin-2-yl]-2-pyridyl]-N-(3-aminopropyl)-2-methyl-propanamide], for which the “ATR Ki” value is “+++ (Compounds with a Ki value >5 nM but ≦1 nM are marked with “+++.”)”.
`CC(C)(C#N)c1cc(-c2cnc(N)c(-c3cc(-c4ccc(C5CNCCN5)cc4)no3)n2)ccn1` (stereo not shown) [Compound I-41, 2-[4-[5-amino-6-[3-(4-piperazin-2-ylphenyl)isoxazol-5-yl]pyrazin-2-yl]-2-pyridyl]-2-methyl-propanenitrile]: the Ki was < 1 nM.
Still for that read-out and setting: in the case of `N#CC1(c2cc(-c3cnc(N)c(-c4cc(-c5ccc(CN[C@H]6CCOC6)cc5)no4)n3)ccn2)CCOCC1` [Compound I-42, 4-[4-[5-amino-6-[3-[4-[[[(3S)-tetrahydrofuran-3-yl]amino]methyl]phenyl]isoxazol-5-yl]pyrazin-2-yl]-2-pyridyl]tetrahydropyran-4-carbonitrile] it was < 1 nM.
For `C[C@H](N)c1ccc(-c2nnc(-c3nc(-c4ccnc(C5(C#N)CCC5)c4)cnc3N)o2)cc1` [Compound I-43, 1-[4-[5-amino-6-[5-[4-[(1S)-1-aminoethyl]phenyl]-1,3,4-oxadiazol-2-yl]pyrazin-2-yl]-2-pyridyl]cyclobutanecarbonitrile], the inhibition constant (Ki) is < 1 nM.
Still for that read-out and setting: in the case of `C[C@H](N)c1ccc(-c2nnc(-c3nc(-c4ccnc(C(C)(C)C#N)c4)cnc3N)o2)cc1` [Compound I-44, 2-[4-[5-amino-6-[5-[4-[(1S)-1-aminoethyl]phenyl]-1,3,4-oxadiazol-2-yl]pyrazin-2-yl]-2-pyridyl]-2-methyl-propanenitrile] it was < 1 nM.
Turning to `CC(C)(C(N)=O)c1cc(-c2cnc(N)c(-c3cc(-c4ccccc4)no3)n2)ccn1` [Compound I-45, 2-[4-[5-amino-6-(3-phenylisoxazol-5-yl)pyrazin-2-yl]-2-pyridyl]-2-methyl-propanamide], the “ATR Ki” value was “+++ (Compounds with a Ki value >5 nM but ≦1 nM are marked with “+++.”)”.
On to `CC(C)(C(=O)NCCO)c1cc(-c2cnc(N)c(-c3cc(-c4ccccc4)no3)n2)ccn1` [Compound I-46, 2-[4-[5-amino-6-(3-phenylisoxazol-5-yl)pyrazin-2-yl]-2-pyridyl]-N-(2-hydroxyethyl)-2-methyl-propanamide], for which the Ki was < 1 nM.
Same read-out and setting: then `CC(C)(C(=O)N1CCC1)c1cc(-c2cnc(N)c(-c3cc(-c4ccccc4)no3)n2)ccn1` [Compound I-47, 2-[4-[5-amino-6-(3-phenylisoxazol-5-yl)pyrazin-2-yl]-2-pyridyl]-1-(azetidin-1-yl)-2-methyl-propan-1-one], with 5 to 20 nM; and `CC(C)(C#N)c1cc(-c2cnc(N)c(-c3cc(-c4ccc(CNC5CC5)cc4)no3)n2)ccn1` [Compound I-48, 2-[4-[5-amino-6-[3-[4-[(cyclopropylamino)methyl]phenyl]isoxazol-5-yl]pyrazin-2-yl]-2-pyridyl]-2-methyl-propanenitrile], with < 1 nM; and `CNCc1ccc(-c2cc(-c3nc(-c4ccnc(C(C)C#N)c4)cnc3N)on2)cc1` (stereo not shown) [Compound I-49, 2-[4-[5-amino-6-[3-[4-(methylaminomethyl)phenyl]isoxazol-5-yl]pyrazin-2-yl]-2-pyridyl]propanenitrile], with < 1 nM.
Still for that read-out and setting: in the case of `CC(C#N)c1cc(-c2cnc(N)c(-c3cc(-c4ccccc4)no3)n2)ccn1` (stereo not shown) [Compound I-50, 2-[4-[5-amino-6-(3-phenylisoxazol-5-yl)pyrazin-2-yl]-2-pyridyl]propanenitrile] it was < 1 nM; in that of `CC(C)(C#N)c1cc(-c2cnc(N)c(-c3cc(-c4ccc(O)cc4)no3)n2)ccn1` [Compound I-51, 2-[4-[5-amino-6-[3-(4-hydroxyphenyl)isoxazol-5-yl]pyrazin-2-yl]-2-pyridyl]-2-methyl-propanenitrile], < 1 nM.

(Values after patent US8877759B2, “Aminopyrazines as ATR kinase inhibitors” (Vertex Pharnaceuticals Incorporated, priority 2011, dated 2014).)
